From patent publication US8334316B2, “Substituted organosulfur compounds and methods of using thereof” (ACEA Biosciences, Inc., priority 2004, dated 2012)
Values joined by “and” are separate entries in the source; they are usually repeats but may differ in a detail not shown here. Equal entries are not always repeated. Marks after values point to notes of the source that are not given here.

Experiments:
[1] = system: Bcap-37 human breast cancer; experiment: Bcap-37 human breast cancer xenograft in nude mice, dosing from 24 h after transplantation (Example 3); format: in vivo
From the text: (§1) Both male and female mice were used. […] Test control. […] Preparation and Administration of Test Compounds. […] For human tumor xenograft model, all used materials, including animal food, animal cage, supporting materials and apparatus contacted by animals, were high-pressure sterilized. Nude mice were maintained in laminar flow shelves under SPF condition. After tumor transplantation, mouse weight and tumor size in each compound dosage group were dynamically monitored and plotted.

HCT-8 human colon cancer = HCT-8 human colon cancer xenograft in nude mice (Example 3); format: in vivo; conditions: 50 mg/kg/d iv x7 qd
From the text: as §1

[2] = system: microtubules in COS cells; experiment: Microtubule network in cultured COS cells (anti-tubulin immunofluorescence, confocal microscopy); format: cell-based
[3] = system: purified bovine brain tubulin; experiment: In vitro microtubule dynamics (dynamic instability) assay, video microscopy; format: biochemical
Procedure: Tubulin Purification and Microtubule Dynamics Assays. Tubulin was purified, as described in the literature (“Kinetic stabilization of microtubule dynamic instability in vitro by vinblastine”, Toso, R. J., Jordan, […]., Matsumoto, B. and Wilson, L., Biochemistry, 1993, 32, 1285-1293). Briefly, microtubule-associated protein-rich bovine brain microtubule protein was prepared by three cycles of assembly and disassembly. Tubulin was purified from other microtubule proteins by elution through a Whatman P-11 phosphocellulose column equilibrated in PEM50 (50 mM Pipes, 1 mM MgSO4, 1 mM EGTA, 0.1 mM GTP). Purified tubulin (>99% pure) was drop-frozen in liquid nitrogen and stored at -70° C. […] The dynamics of individual microtubules were recorded at 37° C. using differential interference contrast enhanced video microscopy. The ends were designated as plus or minus on the basis of the growth rate, the number of microtubules that grew at opposite ends of the seeds, and the relative lengths of the microtubules (Panda, D., Goode, […]. and Wilson, L., Kinetic stabilization of microtubule dynamics at steady state by tau and microtubule-binding domains of tau, Biochemistry, 1995, 34, 11117-11127; Walker, R. A., O'Brien, […]., Voter, W. A., Erickson, H. P. and Salmon, E. D., Dynamic instability of individual microtubules analyzed by video light microscopy: rate constants and transition frequencies, J. Cell Biol. 1988, 107, 1437-1448). Plus ends were analyzed for 10 minutes per slide during the steady-state phase of polymerization ( 45 min after initiation of polymerization). Life histories of individual microtubules were collected as described by Panda et al. 1995 (Panda, D., Goode, […]. and Wilson, L., Kinetic stabilization of microtubule dynamics at steady state by tau and microtubule-binding domains of tau, Biochemistry, 1995, 34 11117-11127) with modifications. Data points were collected at 1-3 s intervals. […] Average rates, lengths and durations are the averages of independent events. The catastrophe frequency was calculated by dividing the number of shortening events by the total time of growth and attenuation tracked, and rescue frequency was calculated by dividing the number of rescue events by the total time of shortening tracked. To control for experimental error, each condition was filmed over multiple days using at least two distinct tubulin/GTP mixtures (2-3 slides each). No gross variation in microtubule dynamics was observed between mixtures or slides of a given condition. The concentration of drug used in dynamic instability assays was chosen by initially observing microtubules stabilized with half the concentration used in microtubule assembly assays.

[4] = 50 mg/kg iv x7 qd, 7 days after transplantation
[5] = 25 d (end), listed as ACEA100101

In the case of `c1ccc(CSSSCc2ccccc2)cc1` [DBTS, Dibenzyl trisulfide], the “Mice with palpable tumor / total mice” value [1, 4] is reported as 2/6††, the “Tumor volume (cm^3)” value [1, 4] is reported as 0.01 cm^3 and the “Tumor volume (cm^3)” value ([1]; 50 mg/kg iv x7 qd, 14 d) is reported as 0.014 ± 0.01 cm^3. The “Tumor volume (cm^3)” value ([1]; 50 mg/kg iv x7 qd, 21 d) was 0.079 ± 0.01 cm^3, the “Tumor volume (cm^3)” value ([1]; 50 mg/kg iv x7 qd, 24 d (end), listed as ACEA100101) was 0.196 cm^3 and 0.196 ± 0.02 cm^3 and the “TV inhibition rate % T/C” value ([1]; 50 mg/kg/d iv x7 qd) was 11.17%. For the same compound, the “Tumor weight” value ([1]; 50 mg/kg/d iv x7 qd) was 0.568 ± 0.07 g, the “Body weight of mice” value ([1]; 50 mg/kg/d iv x7 qd, 0 day (beginning), listed as ACEA100101) was 18.0 g and 18 ± 1 g and the “Body weight of mice” value ([1]; 50 mg/kg/d iv x7 qd, 7 day) was 18.7 ± 0.8 g. The “Body weight of mice” value ([1]; 50 mg/kg/d iv x7 qd, 14 d) was 20.3 ± 0.8 g, the “Body weight of mice” value ([1]; 50 mg/kg/d iv x7 qd, 21 d) was 22 ± 0.6 g and the “Body weight of mice” value ([1]; 50 mg/kg/d iv x7 qd, 24 d (end), listed as ACEA100101) was 22.8 g and 22.8 ± 1.6 g. For the same compound, the “tumor inhibition rate %” value ([1]; 50 mg/kg/d iv x7 qd, vs solvent control) was 66.98%, the “TV inhibition rate % T/C” value (HCT-8 human colon cancer) was 32.17% and the “Tumor weight” value (HCT-8 human colon cancer) was 0.825 ± 0.07 g. The “Mouse Body weight” value (HCT-8 human colon cancer; 0 Day (beginning), listed as ACEA100101) was 18.2 g and 18.2 ± 1.2 g, the “Mouse Body weight” value (HCT-8 human colon cancer; 7 d) was 18.8 ± 1 g and the “Mice with palpable tumor / total mice” value (HCT-8 human colon cancer; 7 day after transplantation) was 4/6††. For the same compound, the “Tumor volume (cm^3)” value (HCT-8 human colon cancer; 7 day after transplantation) was 0.01 cm^3, the “Mouse Body weight” value (HCT-8 human colon cancer; 14 d) was 19.5 ± 1 g and the “Tumor volume (cm^3)” value (HCT-8 human colon cancer; 14 d) was 0.031 ± 0.02 cm^3. For the same compound, the “Mouse Body weight” value (HCT-8 human colon cancer; 21 d) was 20.7 ± 0.8 g, the “Tumor volume (cm^3)” value (HCT-8 human colon cancer; 21 d) was 0.204 ± 0.03 cm^3 and the “Mouse Body weight” value (HCT-8 human colon cancer; [5]) was 23.0 g and 23 ± 1.3 g. The “Tumor volume (cm^3)” value (HCT-8 human colon cancer; [5]) was 0.502 cm^3 and 0.502 ± 0.18 cm^3, the “tumor inhibition rate %” value (HCT-8 human colon cancer; vs solvent control) was 46.08% and the Microtubule network appearance ([2]; 4 hours exposure) was “The microtubule network is completely disrupted”. For the same compound, the “Cell viability / microtubule network” value ([2]; 24 hours, 6 uM or 18 uM) was “no cells are viable”, the “% time spent in attenuation phase” value ([3]; DBTS .1uM) was 52% and the “% time spent in growth phase” value ([3]; DBTS .1uM) was 45%. The “% time spent in shortening phase” value ([3]; DBTS .1uM) was 3%, the Dynamicity ([3]; DBTS .1uM) was 1.72 um/min and the “Frequency of transitions ± SD: Catastrophes” value ([3]; DBTS .1uM) was 0.17 ± 0.04 events/min. For the same compound, the “Frequency of transitions ± SD: Rescues” value ([3]; DBTS .1uM) was 5.3 ± 1.3 events/min, the “Frequency of transitions ± SD: Total” value ([3]; DBTS .1uM) was 0.50 ± 0.07 events/min and the “Growth Rate ± SEM” value ([3]; DBTS .1uM) was 1.55 ± 0.1 um/min. For the same compound, the “Mean duration of attenuation ± SEM” value ([3]; DBTS .1uM) was 2.15 ± 0.3, the “Shortening Rate ± SEM” value ([3]; DBTS .1uM) was 35.40 ± 6.0 um/min and the “Duration of Event” value ([3]; growth events, DBTS .1uM) was 2.21 ± 0.3 min. The “Length of Excursion” value ([3]; growth events, DBTS .1uM) was 3.34 ± 0.3 um, the “Effect on duration of growth events” value ([3]; plus ends, steady state) was “increase the average duration of growth events” and the “Effect on length of growth events” value ([3]; plus ends, steady state) was “increase the average duration of growth events and consequently the average length grown in a growth event”. For the same compound, the “Effect on length of shortening events” value ([3]; plus ends, steady state) was “reduced”, the “Effect on microtubule growth rate” value ([3]; plus ends, steady state) was “did not affect the microtubule growth rate” and the “Effect on percentage of time spent growing” value ([3]; plus ends, steady state) was “increased the percentage of time spent growing”. The “Duration of Event” value ([3]; shortening events, DBTS .1uM) was 0.17 ± 0.04 min and the “Length of Excursion” value ([3]; shortening events, DBTS .1uM) was 6.02 ± 0.3 um.
